Among the data in ChEMBL document CHEMBL4627262, “VEGFR-2 inhibiting effect and molecular modeling of newly synthesized coumarin derivatives as anti-breast cancer agents” (Bioorg Med Chem, 2020) are IC50, inhibition and Activity values, retold here.

Assay [1] has as its system MCF7. Description: Cytotoxicity against human MCF7 cells assessed as inhibition of cell proliferation after 3 days by MTT assay. To be noted: MCF7, 72 h. Type of assay: functional, cell-based. A general note: Tetrazolium assays rely on reduction of a dye to a coloured formazan, in cell work by metabolically active cells.
For a further assay, the system named is PC-3. Description: Cytotoxicity against human PC3 cells assessed as inhibition of cell proliferation after 3 days by MTT assay. Type of assay: functional, cell-based.
Assay [2] deals with MCF7. In words: Cell cycle arrest in human MCF7 cells assessed as induction of preG1 apoptosis after 48 hrs by propidium iodide/RNase A staining based flow cytometry analysis. Type of assay: functional. In general terms: In flow cytometry, cells or beads pass a laser one at a time.
In assay [3] the test system is MCF7. Description: Induction of apoptosis in human MCF7 cells assessed as necrotic cells at after 48 hrs by Annexin V-FITC/propidium iodide staining based flow cytometric analysis (reference value: 0.41 %). The assay is classed as functional.
Assay [4] concerns MCF7. Description: Cell cycle arrest in human MCF7 cells assessed as accumulation at G2/M phase after 48 hrs by propidium iodide/RNase A staining based flow cytometry analysis. Type of assay: functional.
For assay [5], the target named is Vascular endothelial growth factor receptor 2 (Homo sapiens, UniProt P35968). Description: Inhibition of VEGFR2 in human MCF7 cells by horseradish peroxidase-coupled TMB substrate based ELISA. The assay is classed as cell-based. A general note: An ELISA detects its analyte on a solid surface through an enzyme-linked reagent.
Chain of Vascular endothelial growth factor receptor 2 (P35968 whole entry): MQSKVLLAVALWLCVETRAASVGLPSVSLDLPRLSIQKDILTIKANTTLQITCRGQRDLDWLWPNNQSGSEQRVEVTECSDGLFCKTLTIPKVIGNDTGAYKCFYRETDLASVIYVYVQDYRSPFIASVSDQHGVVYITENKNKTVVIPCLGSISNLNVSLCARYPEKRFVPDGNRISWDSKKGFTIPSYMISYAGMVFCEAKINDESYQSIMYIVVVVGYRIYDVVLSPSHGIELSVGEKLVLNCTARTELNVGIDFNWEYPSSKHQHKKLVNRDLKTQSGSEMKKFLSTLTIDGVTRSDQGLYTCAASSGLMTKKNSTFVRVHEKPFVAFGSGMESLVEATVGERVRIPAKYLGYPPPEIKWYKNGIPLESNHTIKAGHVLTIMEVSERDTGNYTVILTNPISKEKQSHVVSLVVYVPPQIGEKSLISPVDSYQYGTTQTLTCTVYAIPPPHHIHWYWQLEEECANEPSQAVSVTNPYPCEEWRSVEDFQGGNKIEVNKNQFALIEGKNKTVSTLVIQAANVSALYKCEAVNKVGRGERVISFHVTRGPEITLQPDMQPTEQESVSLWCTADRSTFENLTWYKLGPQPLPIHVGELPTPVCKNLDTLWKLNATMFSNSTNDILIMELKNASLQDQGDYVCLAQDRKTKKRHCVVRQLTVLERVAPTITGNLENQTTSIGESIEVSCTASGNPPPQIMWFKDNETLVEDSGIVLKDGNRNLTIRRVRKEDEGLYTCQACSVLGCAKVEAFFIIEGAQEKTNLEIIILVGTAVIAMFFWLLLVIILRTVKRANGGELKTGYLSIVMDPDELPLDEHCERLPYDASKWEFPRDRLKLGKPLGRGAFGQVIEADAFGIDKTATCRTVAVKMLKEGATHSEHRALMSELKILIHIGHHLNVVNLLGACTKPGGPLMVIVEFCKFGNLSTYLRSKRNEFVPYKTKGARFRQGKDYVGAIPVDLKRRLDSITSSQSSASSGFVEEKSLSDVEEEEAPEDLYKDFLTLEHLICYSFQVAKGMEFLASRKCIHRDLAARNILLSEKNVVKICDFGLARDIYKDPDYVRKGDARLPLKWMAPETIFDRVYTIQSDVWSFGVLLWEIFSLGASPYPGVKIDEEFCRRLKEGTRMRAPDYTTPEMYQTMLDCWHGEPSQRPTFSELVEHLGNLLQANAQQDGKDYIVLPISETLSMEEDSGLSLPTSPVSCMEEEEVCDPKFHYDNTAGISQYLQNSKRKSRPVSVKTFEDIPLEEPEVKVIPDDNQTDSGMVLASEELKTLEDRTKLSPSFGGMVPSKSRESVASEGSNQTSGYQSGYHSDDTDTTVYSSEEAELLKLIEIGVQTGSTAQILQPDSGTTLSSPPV
Assay [6] relates to MCF7. In words: Induction of apoptosis in human MCF7 cells assessed as late apoptotic cells after 48 hrs by Annexin V-FITC/propidium iodide staining based flow cytometric analysis (reference value: 0.3 %). Type of assay: functional.
Assay [7] relates to MCF7. Description: Induction of apoptosis in human MCF7 cells assessed as early apoptotic cells after 48 hrs by Annexin V-FITC/propidium iodide staining based flow cytometric analysis (reference value: 1.56 %). The assay is classed as functional.
Assay [8] deals with MCF7. Description: Induction of apoptosis in human MCF7 cells assessed as up regulation of caspase 9 expression by measuring caspase 9 level by ELISA (reference value: 1.223 ng/ml). The assay is classed as functional.

Calls of active or inactive are those of the source. The calls are words filed in the database; no cut-off is given here.

Take `Cc1cc(=O)oc2cc(OCC(=O)NNC(=O)CN3CCOCC3)ccc12`: the concentration for half-maximal inhibition (IC50) in the assay with MCF7 [1] turned out to be 37.3 µM. In addition, the inhibition entry in the assay on PC-3 is “inactive”.
On to `O=c1oc2ccc(S(=O)(=O)NCc3ccc4c(c3)OCO4)cc2cc1Br`, for which, in the assay with MCF7 [1], the half-inhibitory concentration (IC50) stood at 7.79 µM. Also, in the assay with PC-3, the inhibition entry was “inactive”.
On the same counts, the results for `Cc1cc(=O)oc2ccc(N3C(=O)c4ccccc4C3=O)cc12` are 4.17 µM and “inactive”.
On the same counts, the results for `O=c1oc2ccc(S(=O)(=O)N3CCOCC3)cc2cc1Br` are 13.2 µM and “inactive”.
Turning to `Cc1cc(=O)oc2cc(OCC(=O)NNCc3ccccc3)ccc12`, the result in the assay on MCF7 [2] and in the assay on MCF7 [4] was Active. Also, the half-maximal inhibitory concentration (IC50) with MCF7 [1] is 1.24 µM; in assay [5], 0.36 µM. The Activity worked out at 1.92% in the assay with MCF7 [3], 17.78% in the assay on MCF7 [6], 6.72% in the assay on MCF7 [7] and 8.015 ng/mL in the assay with MCF7 [8]. Moreover, in the assay on PC-3, the inhibition result was “inactive”.
`Cc1cc(=O)oc2cc(OCC(=O)NNC(=O)CN3CCN(C)CC3)ccc12`: the IC50 in the assay on MCF7 [1] is 6.68 µM. Also, the inhibition entry in the assay on PC-3 is “inactive”.
The like results for `Cc1ccc(/C=N/NC(=O)COc2ccc3c(C)cc(=O)oc3c2)o1` were, in that order, 3.19 µM and “inactive”.
As to `O=c1oc2ccc(S(=O)(=O)N3CCCCC3)cc2cc1Br`, the IC50 with MCF7 [1] worked out at 2.07 µM. Further, the inhibition result in the assay with PC-3 is “inactive”.
On the same counts, the results for `COc1cc(OC)c(CNS(=O)(=O)c2ccc3oc(=O)c(Br)cc3c2)c(OC)c1` are 5.76 µM and “inactive”.
In the case of `Cc1cc(=O)oc2cc(OCC(=O)NN(C(=O)c3ccncc3)C(=O)c3ccncc3)ccc12`, in the assay on MCF7 [1], the half-inhibitory concentration (IC50) turned out to be 8.68 µM. For the same compound, the inhibition entry in the assay with PC-3 was “inactive”.
The like results for `Cc1cc(=O)oc2cc(OCC(=O)N/N=C/c3ccc(N(C)C)cc3)ccc12` were, in that order, 5.54 µM and “inactive”.
On the same counts, the results for `Cc1cc(=O)oc2cc(OCC(=O)N/N=C/c3ccc(F)cc3)ccc12` are 9.78 µM and “inactive”.
For `O=c1oc2ccc(S(=O)(=O)Nc3nc4ccccc4[nH]3)cc2cc1Br`, the half-maximal inhibitory concentration (IC50) in the assay on MCF7 [1] is 3.65 µM. Further, the inhibition result in the assay with PC-3 is “inactive”.
The like results for `CN1CCN(S(=O)(=O)c2ccc3oc(=O)c(Br)cc3c2)CC1` were, in that order, 31.4 µM and “inactive”.
With `CN[C@@H]1C[C@H]2O[C@@](C)([C@@H]1OC)n1c3ccccc3c3c4c(c5c6ccccc6n2c5c31)C(=O)NC4` [STAUROSPORINE], the Activity in the assay on MCF7 [3] was 2.33%; in the assay on MCF7 [6], 11.27%; with MCF7 [7] it was 8.16%; in the assay on MCF7 [8], 8.41 ng/mL.
Consider `Cc1cc(=O)oc2ccc(NC(=O)c3ccccc3)cc12`, for which the half-maximal inhibitory concentration (IC50) with MCF7 [1] amounted to 4.6 µM. In addition, in the assay on PC-3, the inhibition entry was “inactive”.
Take `Cc1cc(=O)oc2cc(OCC(=O)Nn3c(=O)[nH]c4ccccc4c3=O)ccc12`: the 50% inhibitory concentration (IC50) was determined as 1.65 µM in the assay with MCF7 [1] and 0.66 µM in assay [5]. Moreover, the inhibition result in the assay on PC-3 is “inactive”.
As for `Cc1cc(=O)oc2cc(OCC(=O)NNC(=O)c3ccccc3)ccc12`, the half-maximal inhibitory concentration (IC50) with MCF7 [1] turned out to be 7.89 µM. For the same compound, in the assay with PC-3, the inhibition entry was “inactive”.
On the same counts, the results for `Cc1cc(=O)oc2cc(OCC(=O)NN3C(=O)c4ccccc4C3=O)ccc12` are 14.7 µM and “inactive”.
Turning to `Cc1cc(=O)oc2cc(OCC(=O)NN3C(=O)C=CC3=O)ccc12`, the IC50 in the assay on MCF7 [1] is 2.11 µM. In addition, in the assay with PC-3, the inhibition entry was “inactive”.
For the compound `Cc1cc(=O)oc2cc(OCC(=O)N/N=C/c3ccc([N+](=O)[O-])cc3)ccc12`, the half-inhibitory concentration (IC50) in the assay with MCF7 [1] was determined as 5.59 µM. Further, in the assay on PC-3, the inhibition result was “inactive”.

The term IC50 denotes the concentration that inhibits the measured activity by half.
